Experiment [1] has as its target T1, human recombinant serotonin (5-Hydroxytryptamine) 5-HT2A receptor (Homo sapiens, UniProt P28223).
T1 construct: expressed in transfected cells; host or cells: CHO-K1 cells
Put plainly: Serotonin 5-HT2A radioligand binding ([3H]Ketanserin). As to conditions: 1 h; read-out: Percent Inhibition of ligand binding Serotonin (1 μM ligand concentration) 5-HT2A. The method, then:
To evaluate in radioligand binding assays the activity of compounds of the invention, human recombinant serotonin (5-Hydroxytryptamine) 5-HT2A receptor expressed in Chinese hamster ovary (CHO-K1) cells (Bonhaus, D. W. et al. Br. J. Pharmacol. 115:622, 1995; Saucier, C. and Albert, P. R., J. Neurochem. 68:1998, 1997) in a 50 mM Tris-HCl buffer, pH 7.4, was used. Compounds of the invention were incubated with 0.5 nM [^3H]Ketanserin for 60 minutes at 25° C. Non-specific binding was estimated in the presence of 1 μM Mianserin. Receptor proteins were filtered and washed, the filters were then counted to determine [^3H]Ketanserin specifically bound. Compounds were screened at 1 μM or lower, using 1% DMSO as vehicle. Biochemical assay results are presented as the percent inhibition of specific binding in Table 5.

For experiment [2], the target named is T2, human recombinant serotonin (5-Hydroxytryptamine) 5-HT6 receptor (Homo sapiens, UniProt P50406).
T2 construct: expressed in transfected cells; host or cells: human HeLa cells
T2 sequence (P50406 whole entry): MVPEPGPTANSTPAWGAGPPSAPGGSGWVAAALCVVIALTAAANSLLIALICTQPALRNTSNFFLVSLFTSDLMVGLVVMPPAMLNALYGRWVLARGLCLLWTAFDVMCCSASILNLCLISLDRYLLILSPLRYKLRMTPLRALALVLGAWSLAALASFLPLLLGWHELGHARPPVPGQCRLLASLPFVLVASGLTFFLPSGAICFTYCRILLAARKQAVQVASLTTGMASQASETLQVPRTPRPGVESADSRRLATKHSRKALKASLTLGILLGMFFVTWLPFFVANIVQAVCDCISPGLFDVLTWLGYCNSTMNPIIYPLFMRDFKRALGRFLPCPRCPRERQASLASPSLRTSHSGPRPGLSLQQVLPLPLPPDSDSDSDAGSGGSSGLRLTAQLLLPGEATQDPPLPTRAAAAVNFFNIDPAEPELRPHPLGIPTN
As to the kind of experiment: Serotonin 5-HT6 radioligand binding ([3H]LSD). As to conditions: 2 h; read-out: Percent Inhibition of ligand binding Serotonin (1 μM ligand concentration) 5-HT6. The method, then:
To evaluate in radioligand binding assays the activity of compounds of the invention, human recombinant serotonin (5-Hydroxytryptamine) 5-HT6 receptor expressed in human HeLa cells (Monsma, F. J. Jr. et al., Mol. Pharmacol. 43:320, 1993) in a modified Tris-HCl buffer (50 mM Tris-HCl, pH 7.4, 150 mM NaCl, 2 mM Ascorbic Acid, 0.001% BSA) was used. Compounds of the invention were incubated with 1.5 nM [3H]Lysergic acid diethylamide (LSD) for 120 minutes at 37° C. Non-specific binding was estimated in the presence of […] Serotonin (5-HT). Receptor proteins were filtered and washed, the filters were then counted to determine [3H]LSD specifically bound. Compounds were screened at 1 μM or lower, using 1% DMSO as vehicle. Biochemical assay results are presented as the percent inhibition of specific binding in Table 5.

The target of experiment [3] is T3, human recombinant serotonin (5-Hydroxytryptamine) 5-HT7 receptor (Homo sapiens, UniProt P34969).
T3 construct: expressed in transfected cells; host or cells: CHO cells
T3 sequence (P34969 whole entry): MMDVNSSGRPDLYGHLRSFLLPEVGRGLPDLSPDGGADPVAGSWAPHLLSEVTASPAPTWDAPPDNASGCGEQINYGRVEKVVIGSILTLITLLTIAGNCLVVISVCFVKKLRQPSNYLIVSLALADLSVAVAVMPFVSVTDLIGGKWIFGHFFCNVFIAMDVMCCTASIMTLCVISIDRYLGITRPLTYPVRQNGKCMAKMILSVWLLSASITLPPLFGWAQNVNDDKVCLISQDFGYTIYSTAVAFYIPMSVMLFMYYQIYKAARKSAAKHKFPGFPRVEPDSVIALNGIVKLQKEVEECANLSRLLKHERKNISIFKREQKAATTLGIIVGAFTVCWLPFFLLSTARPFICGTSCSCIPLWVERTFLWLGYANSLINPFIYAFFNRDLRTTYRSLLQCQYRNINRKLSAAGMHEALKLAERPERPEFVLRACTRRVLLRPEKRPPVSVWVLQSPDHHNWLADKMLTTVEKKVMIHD
As to the kind of experiment: Serotonin 5-HT7 radioligand binding ([3H]LSD). As to conditions: 2 h; read-out: Percent Inhibition of ligand binding Serotonin (1 μM ligand concentration) 5-HT7. The method, then:
To evaluate in radioligand binding assays the activity of compounds of the invention, human recombinant serotonin (5-Hydroxytryptamine) 5-HT7 receptor expressed in Chinese hamster ovary (CHO) cells (Roth, B. L. et al., J. Pharmacol. Exp. Ther. 268:1403, 1994; Shen, Y. et al., J. Biol. Chem. 268:18200, 1993) in a modified Tris-HCl buffer (50 mM Tris-HCl, pH 7.4, 10 mM MgCl2, 0.5 mM EDTA) was used. Compounds of invention were incubated with 5.5 nM [^3H]Lysergic acid diethylamide (LSD) for 2 hours at 25° C. Non-specific binding was estimated in the presence of […] Serotonin (5-HT). Receptor proteins were filtered and washed, the filters were then counted to determine [^3H]LSD specifically bound. Compounds were screened at 1 μM or lower, using 1% DMSO as vehicle. Biochemical assay results are presented as the percent inhibition of specific binding in Table 5.

Experiment [4] deals with T4, human recombinant dopamine D2L receptor (Homo sapiens, UniProt P14416).
T4 construct: expressed in transfected cells; host or cells: CHO cells
T4 sequence (P14416 whole entry): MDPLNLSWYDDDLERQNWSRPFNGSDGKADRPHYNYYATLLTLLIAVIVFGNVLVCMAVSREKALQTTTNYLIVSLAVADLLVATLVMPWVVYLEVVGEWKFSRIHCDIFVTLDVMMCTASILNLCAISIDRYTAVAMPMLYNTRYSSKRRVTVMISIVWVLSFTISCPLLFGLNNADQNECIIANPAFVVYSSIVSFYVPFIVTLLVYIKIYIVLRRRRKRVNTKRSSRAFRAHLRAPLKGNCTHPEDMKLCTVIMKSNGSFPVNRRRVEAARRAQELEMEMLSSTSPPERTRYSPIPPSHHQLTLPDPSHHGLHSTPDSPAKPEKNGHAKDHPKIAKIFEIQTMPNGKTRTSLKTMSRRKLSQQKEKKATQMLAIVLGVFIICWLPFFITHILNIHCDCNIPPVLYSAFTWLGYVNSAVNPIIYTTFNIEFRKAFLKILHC
As to the kind of experiment: Dopamine D2L radioligand binding ([3H]Spiperone). The following applies: 2 h, 1 μM ligand conc.; read-out: Percent Inhibition of ligand binding Dopamine (1 μM ligand conc.) D2L. The method, then:
To evaluate in radioligand binding assays the activity of compounds of the invention, human recombinant dopamine D2L receptor expressed in Chinese hamster ovary (CHO) cells (Grandy, D. K. et al. Proc. Natl. Acad. Sci. USA. 86:9762, 1989; Hayes, G. et al., Mol. Endocrinol. 6:920, 1992) in a modified Tris-HCl buffer (50 mM Tris-HCl, pH 7.4, 1.4 mM Ascorbic Acid, 0.001% BSA, 150 mM NaCl) was used. Compounds of the invention were incubated with 0.16 nM [^3H]Spiperone for 120 minutes at 25° C. Non-specific binding was estimated in the presence of […] Haloperidol. Receptor proteins were filtered and washed, the filters were then counted to determine [^3H]Spiperone specifically bound. Compounds were screened at 1 μM or lower, using 1% DMSO as vehicle. Biochemical assay results are presented as the percent inhibition of specific binding in Table 4.

For experiment [5], the target named is T5, human recombinant histamine H1 receptor (Homo sapiens, UniProt P35367).
T5 construct: expressed in transfected cells; host or cells: CHO cells
T5 sequence (P35367 whole entry): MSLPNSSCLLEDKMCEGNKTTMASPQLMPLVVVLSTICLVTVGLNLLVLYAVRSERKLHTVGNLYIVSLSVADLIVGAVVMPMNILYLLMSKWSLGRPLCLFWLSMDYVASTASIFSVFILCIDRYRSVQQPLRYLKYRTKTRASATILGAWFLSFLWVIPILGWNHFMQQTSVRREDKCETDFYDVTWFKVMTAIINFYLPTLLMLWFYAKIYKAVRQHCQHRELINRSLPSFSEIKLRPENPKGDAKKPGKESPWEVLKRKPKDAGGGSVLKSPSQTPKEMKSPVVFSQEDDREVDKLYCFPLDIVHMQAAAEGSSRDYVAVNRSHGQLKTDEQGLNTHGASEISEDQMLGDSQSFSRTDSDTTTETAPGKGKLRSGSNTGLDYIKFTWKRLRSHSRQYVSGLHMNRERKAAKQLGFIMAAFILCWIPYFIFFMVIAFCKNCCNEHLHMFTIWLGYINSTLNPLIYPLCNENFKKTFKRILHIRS
Put plainly: Histamine H1 radioligand binding ([3H]Pyrilamine). The following applies: 1 μM; read-out: Binding data (Percentage Inhibition) Histamine Binding (1 μM) H1. As to the method: To evaluate in radioligand binding assays the activity of compounds of the invention, human recombinant histamine H1 receptor expressed in Chinese hamster ovary (CHO) cells (De Backer, M. D. et al., Biochem. Biophys. Res. Comm. 197(3):1601, 1993) in a modified Tris-HCl buffer (50 mM Tris-HCl, pH 7.4, 2 mM MgCl2, 100 mM NaCl, 250 mM Sucrose) was used. Compounds of the invention were incubated with 1.2 nM [^3H]Pyrilamine for 180 minutes at 25° C. Non-specific binding was estimated in the presence of 1 μM pyrilamine. Receptor proteins were filtered and washed, the filters were then counted to determine [^3H]Pyrilamine specifically bound. […] Biochemical assay results are presented as the percent inhibition of specific binding in Table 3.

For experiment [6], the target named is T6, human recombinant serotonin (5-Hydroxytryptamine) 5-HT2C receptor (Homo sapiens, UniProt P28335).
T6 construct: expressed in transfected cells; host or cells: CHO-K1 cells
T6 sequence (P28335 33-458): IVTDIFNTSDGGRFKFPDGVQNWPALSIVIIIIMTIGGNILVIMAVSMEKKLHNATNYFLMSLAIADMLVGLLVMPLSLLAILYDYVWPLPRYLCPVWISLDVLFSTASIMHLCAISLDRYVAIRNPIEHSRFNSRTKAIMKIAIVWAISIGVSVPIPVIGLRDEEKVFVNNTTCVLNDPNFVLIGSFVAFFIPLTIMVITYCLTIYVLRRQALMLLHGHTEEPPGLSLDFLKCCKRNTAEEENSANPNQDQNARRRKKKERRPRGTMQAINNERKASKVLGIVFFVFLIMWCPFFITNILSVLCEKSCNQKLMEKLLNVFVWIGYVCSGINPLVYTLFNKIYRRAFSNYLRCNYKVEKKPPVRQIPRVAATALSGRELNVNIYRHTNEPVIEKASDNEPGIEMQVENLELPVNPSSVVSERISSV
Put plainly: Serotonin 5-HT2C radioligand binding ([3H]Mesulergine). As to conditions: 1 h; read-out: Percent Inhibition of ligand binding Serotonin (1 μM ligand concentration) 5-HT2C. As to the method: Compounds of the invention were incubated with 1 nM [^3H]Mesulergine for 60 minutes at 25° C. Non-specific binding was estimated in the presence of 1 μM Mianserin. Receptor proteins were filtered and washed, the filters were then counted to determine [^3H]Mesulergine specifically bound. […] Biochemical assay results are presented as the percent inhibition of specific binding in Table 5.

Experiment [7] addresses T7, human recombinant histamine H2 receptor (Homo sapiens, UniProt P25021).
T7 construct: expressed in transfected cells; host or cells: CHO-K1 cells
Put plainly: Histamine H2 radioligand binding ([125I]Aminopotentidine). As to conditions: 1 μM; inhibition of specific [125I]Aminopotentidine binding; read-out: Binding data (Percentage Inhibition) Histamine Binding (1 μM) H2. The method, then: To evaluate in radioligand binding assays the activity of compounds of the invention, human recombinant histamine H2 receptor expressed in Chinese hamster ovary (CHO) K1 cells (Ruat, M., Proc. Natl. Acad. Sci. USA. 87(5):1658, 1990) in a 50 mM Phosphate buffer, pH 7.4 was used. Compounds of the invention were incubated with 0.1 nM [^125I]Aminopotentidine for 120 minutes at 25° C. Non-specific binding was estimated in the presence of 3 μM Tiotidine. Receptor proteins were filtered and washed, the filters were then counted to determine [^125I]Aminopotentidine specifically bound. Compounds were screened at 1 μM or lower, using 1% DMSO as vehicle. Biochemical assay results are presented as the percent inhibition of specific binding in Table 3.

T1 sequence (P28223 whole entry): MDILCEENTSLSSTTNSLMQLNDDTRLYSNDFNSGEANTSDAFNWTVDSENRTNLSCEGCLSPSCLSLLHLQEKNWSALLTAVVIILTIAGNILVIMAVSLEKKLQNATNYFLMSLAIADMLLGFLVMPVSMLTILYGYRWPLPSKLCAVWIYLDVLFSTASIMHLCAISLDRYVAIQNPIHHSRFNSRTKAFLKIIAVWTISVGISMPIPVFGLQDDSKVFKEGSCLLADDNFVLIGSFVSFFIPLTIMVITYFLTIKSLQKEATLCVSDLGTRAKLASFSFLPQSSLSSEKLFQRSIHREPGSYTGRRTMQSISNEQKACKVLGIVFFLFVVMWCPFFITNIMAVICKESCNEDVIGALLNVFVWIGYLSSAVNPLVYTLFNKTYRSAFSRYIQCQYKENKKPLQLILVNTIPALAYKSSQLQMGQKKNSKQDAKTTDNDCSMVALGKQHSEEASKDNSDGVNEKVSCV
T7 sequence (P25021 whole entry): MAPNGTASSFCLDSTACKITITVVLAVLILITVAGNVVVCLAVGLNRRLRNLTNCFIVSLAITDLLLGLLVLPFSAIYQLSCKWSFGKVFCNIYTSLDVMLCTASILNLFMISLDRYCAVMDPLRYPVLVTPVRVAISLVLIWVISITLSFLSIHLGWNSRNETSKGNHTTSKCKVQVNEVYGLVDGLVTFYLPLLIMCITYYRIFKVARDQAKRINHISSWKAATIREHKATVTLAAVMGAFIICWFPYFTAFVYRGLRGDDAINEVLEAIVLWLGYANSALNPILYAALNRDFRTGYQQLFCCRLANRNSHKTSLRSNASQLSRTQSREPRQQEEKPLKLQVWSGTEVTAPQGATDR

Consider `CCC1c2c(c3cc(Cl)ccc3n2/C=C(\C)c2ccc(Cl)c(Cl)c2)CCN1C` (centres unmarked) [Compound 116, 6-chloro-9-(2-(3,4-dichlorophenyl)prop-1-enyl)-1-ethyl-2-methyl-2,3,4,9-tetrahydro-1H-pyrido[3,4-b]indole], for which the inhibition at 1 µM in experiment [1] turned out to be 83%; in experiment [2], 38%; in experiment [3] it was 51%; in experiment [4], 0%; in experiment [5] it was 8%; in experiment [6], 85%. The inhibition at 1 µM in experiment [7] came to 50%.

As to `C/C(=C\n1c2c(c3cc(Cl)ccc31)CCN(C)C2)c1ccc(Cl)c(Cl)c1` [Compound 114, 6-chloro-9-(2-(3,4-dichlorophenyl)prop-1-enyl)-2-methyl-2,3,4,9-tetrahydro-1H-pyrido[3,4-b]indole], the inhibition at 1 µM was 93% in experiment [1]; 42% in experiment [2]; 87% in experiment [3]; 8% in experiment [4]; 30% in experiment [5]; 95% in experiment [6]. In experiment [7], the inhibition at 1 µM was determined as 75%.

As for `CCC1c2c(c3cc(C)ccc3n2/C=C(\C)c2ccc(F)c(F)c2)CCN1C` (centres unmarked) [Compound 176, (E)-9-(2-(3,4-difluorophenyl)prop-1-enyl)-1-ethyl-2,6-dimethyl-2,3,4,9-tetrahydro-1H-pyrido[3,4-b]indole], the inhibition at 1 µM in experiment [1] was 81%; in experiment [2] it was 26%; in experiment [3], 53%; in experiment [4], -2%; in experiment [5] it was 17%; in experiment [6], 94%. Besides, the inhibition at 1 µM in experiment [7] amounted to 26%.

For the compound `C/C(=C\n1c2c(c3cc(C)ccc31)CCN(C)C2)c1ccc(F)c(F)c1` [Compound 109, 9-(2-(3,4-difluorophenyl)prop-1-enyl)-2,6-dimethyl-2,3,4,9-tetrahydro-1H-pyrido[3,4-b]indole], the inhibition at 1 µM in experiment [1] came to 96%; in experiment [2], 72%; in experiment [3] it was 96%; in experiment [4] it was 12%; in experiment [5] it was 20%; in experiment [6], 97%. The inhibition at 1 µM in experiment [7] came out at 67%.

`C/C(=C\n1c2c(c3cc(Cl)ccc31)CCN(C)C2C)c1ccc(F)c(F)c1` (centres unmarked) [Compound 111, 6-chloro-9-(2-(3,4-difluorophenyl)prop-1-enyl)-1,2-dimethyl-2,3,4,9-tetrahydro-1H-pyrido[3,4-b]indole]: the inhibition at 1 µM in experiment [1] stood at 79%; in experiment [2], 88%; in experiment [3] it was 78%; in experiment [4], 5%; in experiment [5], 60%; in experiment [6], 93%. Besides, the inhibition at 1 µM in experiment [7] stood at 61%.

`C/C(=C/n1c2c(c3cc(C)ccc31)CCN(C)C2C)c1ccc(Cl)cc1Cl` (centres unmarked) [Compound 169]: the inhibition at 1 µM stood at 80% in experiment [1]; 24% in experiment [2]; 78% in experiment [3]; 5% in experiment [4]; 20% in experiment [5]; 91% in experiment [6]. Further, in experiment [7], the inhibition at 1 µM came to 50%.

Take `COc1ccc(/C(C)=C/n2c3c(c4cc(C)ccc42)CCN(C)C3)cc1F` [Compound 121, 9-(2-(3-fluoro-4-methoxyphenyl)prop-1-enyl)-2,6-dimethyl-2,3,4,9-tetrahydro-1H-pyrido[3,4-b]indole]: the inhibition at 1 µM in experiment [1] worked out at 96%; in experiment [2], 33%; in experiment [3] it was 94%; in experiment [4] it was 21%; in experiment [5] it was 9%; in experiment [6], 102%. Besides, the inhibition at 1 µM in experiment [7] is 50%.

Take `CCC1c2c(c3cc(Cl)ccc3n2/C=C(\C)c2cccnc2)CCN1C` (centres unmarked) [Compound 108]: the inhibition at 1 µM in experiment [1] was 45%; in experiment [2], 6%; in experiment [3], 62%; in experiment [4], -4%; in experiment [5] it was 30%; in experiment [6], 60%. In addition, in experiment [7], the inhibition at 1 µM stood at 12%.
